According to patent publication US20140148336A1, “METHODS OF CONTROLLING FUNGAL PATHOGENS USING POLYENE FUNGICIDES” (priority 2012, published 2014):

Experiments:
SDS spores = test: Comparison of inoculum rates on treated seeds for control of SDS in planta (Example 6); format: in vivo, Fusarium virguliforme; settings: for Root Vigor Average: rating 0-4 (4 = healthy taproot); for Root Rot Average: rating 1-5 (5 = >90% infection)
Source text: (§1) The plants were allowed to grow for 18-21 days. The plants were then gently removed and assessed for root rot symptoms, with a rating of 1=0% infection on taproot and lateral roots, a 2=<25% infection, a 3=25-50% infection, a 4=51-90% infection, and a 5=>90% infection. Root vigor was rated such that a rating of 4=healthy taproot and many lateral roots, a 3=fewer lateral roots and some stunting, a 2=fewer or stringy lateral roots and more stunting, 1=thin tap root and only a few lateral roots, and a 0=thin and stunted taproot with 0-3 lateral roots.
Using a protocol similar to that described in Example 5, natamycin at concentrations of 50 μg, 25 μg, 10 μg, 5 μg, and 1 μg was assessed for the treatment of SDS.
[…] Inoculum rates of 25 g/L inoculum and 8 g/L inoculum were compared, corresponding to approximately 10^5 SDS spores per container and 10^4-10^5 SDS spores per container, respectively. Assessment occurred after 18 and 22 days.

soybean = test: Seed treatment in uninfested soil, germination and potential phytotoxicity (Example 5); format: in vivo; settings: for Root Vigor Average (Uninfested Soil): rating 0-4 (4 = healthy taproot)
Source text: as §1
(§2) Using a protocol similar to Example 2, natamycin treated seeds were tested at 50 μg, 25 μg, 10 μg, 5 μg, and 1 μg natamycin per seed. Briefly, seeds were coated with a natamycin slurry and then allowed to air dry. Ten samples of each were planted into infested soil, while five samples of each were planted in uninfested soil to compare germination and potential phytotoxicity.

SDS = test: Seed treatment for control of SDS in planta, infested soil (Example 5); format: in vivo, Fusarium virguliforme; settings: for Root Rot Average: 25 g inoculum per liter, rating 1-5 (5 = >90% infection), IC 3.3; for Root Vigor Average Infested Soil: rating 0-4 (4 = healthy taproot), IC 2.5
Source text: as §1, §2
Inoculum rates in this experiment were 25 g inoculum per liter sand/soil. This is equivalent to 8.5×10^4 spores per cone.
Plants treated with 50 μg/seed of natamycin had the most root rot, while plants treated with 1 μg/seed of natamycin had the least root rot. […] In the tables below, “IC Natamycin 25 ppm” refers to an infested control that was treated with natamcyin as a drench application at 25 ppm two days after planting untreated seed into infested soil.

[1] = tested on: SDS Fusarium virguliforme; test: Drench treatment on soy seedlings for control of SDS in planta, low concentrations (Example 4); format: in vivo; settings: for Root Vigor Average Expt. 1 / Root Vigor Average Expt. 2: rating 0 (thin and stunted taproot) to 4 (healthy taproot); for Root Vigor Average Expt. 1: IC 1.6, UIC 3.6; for Root Vigor Average Expt. 2: IC 2.2, UIC 3.9; for Root Rot Average Expt. 2 / Root Rot Average Expt. 1: rating 1 (0% infection) to 5 (>90% infection); for Root Rot Average Expt. 2: IC 3.8, UIC 1; for Root Rot Average Expt. 1: IC 4, UIC 1
Source text: The plants were allowed to grow for 18-21 days. The plants were then gently removed and assessed for root rot symptoms, with a rating of 1=0% infection on taproot and lateral roots, a 2=<25% infection, a 3=25-50% infection, a 4=51-90% infection, and a 5=>90% infection. Root vigor was rated such that a rating of 4=healthy taproot and many lateral roots, a 3=fewer lateral roots and some stunting, a 2=fewer or stringy lateral roots and more stunting, 1=thin tap root and only a few lateral roots, and a 0=thin and stunted taproot with 0-3 lateral roots. […] In these experiments, the inoculum rate was measured by spores/cone at approximately 1×10^7 SDS Fusarium virguliforme spores per cone. Soy plants were germinated first and then transplanted into infested soil. The soybean seeds were germinated in clean sand/soil for 12 days and then seedlings were transplanted into infested soil for 18 days. Natamycin drench was applied 24 hours after transplanting. Natamycin treatment was assessed at 2.5 weeks.

[2] = drench 25 ppm two days after planting untreated seed into infested soil

`C[C@@H]1C/C=C/C=C/C=C/C=C/[C@H](O[C@@H]2O[C@H](C)[C@@H](O)[C@H](N)[C@@H]2O)C[C@@H]2O[C@](O)(C[C@@H](O)C[C@H]3O[C@@H]3/C=C/C(=O)O1)C[C@H](O)[C@H]2C(=O)O` [Natamycin, natamycin] was tested, and the “decrease of root rot symptoms” value (SDS spores; both seed treatment experiments, both SDS inoculum rates) was “no consistent decrease”, the “Root Vigor Average” value (SDS spores; drench 25 ppm, Inoc Rate 8, IC 2.3) was 1.9 and the “Root Rot Average” value (SDS spores; drench 25 ppm, Inoc Rate 8, IC 2.9) was 2.6. For the same compound, the “Root Vigor Average” value (SDS spores; drench 25 ppm, Inoc Rate 25, IC 1.6) was 2.3, the “Root Rot Average” value (SDS spores; drench 25 ppm, Inoc Rate 25, IC 3.9) was 4.1 and the “Root Vigor Average” value (SDS spores; seed treatment 1 μg/seed, Inoc Rate 8, IC 2.3) was 1.9. For the same compound, the “Root Rot Average” value (SDS spores; seed treatment 1 μg/seed, Inoc Rate 8, IC 2.9) was 2.9, the “Root Vigor Average” value (SDS spores; seed treatment 1 μg/seed, Inoc Rate 25, IC 1.6) was 2.1 and the “Root Rot Average” value (SDS spores; seed treatment 1 μg/seed, Inoc Rate 25, IC 3.9) was 4.1. The “Root Vigor Average” value (SDS spores; seed treatment 5 μg/seed, Inoc Rate 8, IC 2.3) was 1.4, the “Root Rot Average” value (SDS spores; seed treatment 5 μg/seed, Inoc Rate 8, IC 2.9) was 2.4 and the “Root Vigor Average” value (SDS spores; seed treatment 5 μg/seed, Inoc Rate 25, IC 1.6) was 2.6. For the same compound, the “Root Rot Average” value (SDS spores; seed treatment 5 μg/seed, Inoc Rate 25, IC 3.9) was 4.1, the “Root Vigor Average” value (SDS spores; seed treatment 10 μg/seed, Inoc Rate 8, IC 2.3) was 2.2 and the “Root Rot Average” value (SDS spores; seed treatment 10 μg/seed, Inoc Rate 8, IC 2.9) was 2.4. For the same compound, the “Root Vigor Average” value (SDS spores; seed treatment 10 μg/seed, Inoc Rate 25, IC 1.6) was 1.9, the “Root Rot Average” value (SDS spores; seed treatment 10 μg/seed, Inoc Rate 25, IC 3.9) was 4.1 and the “Root Vigor Average” value (SDS spores; seed treatment 25 μg/seed, Inoc Rate 8, IC 2.3) was 1.8. The “Root Rot Average” value (SDS spores; seed treatment 25 μg/seed, Inoc Rate 8, IC 2.9) was 2.3, the “Root Vigor Average” value (SDS spores; seed treatment 25 μg/seed, Inoc Rate 25, IC 1.6) was 2.2 and the “Root Rot Average” value (SDS spores; seed treatment 25 μg/seed, Inoc Rate 25, IC 3.9) was 3.6. For the same compound, the “Root Vigor Average” value (SDS spores; seed treatment 50 μg/seed, Inoc Rate 8, IC 2.3) was 1.9, the “Root Rot Average” value (SDS spores; seed treatment 50 μg/seed, Inoc Rate 8, IC 2.9) was 2.8 and the “Root Vigor Average” value (SDS spores; seed treatment 50 μg/seed, Inoc Rate 25, IC 1.6) was 2.1. For the same compound, the “Root Rot Average” value (SDS spores; seed treatment 50 μg/seed, Inoc Rate 25, IC 3.9) was 3.8, the germination of plants (soybean; all plants, seed treatment at all natamycin concentrations (50, 25, 10, 5, 1 μg per seed), un-infested (clean) soil) was “germinated” and the “Root Vigor Average (Uninfested Soil)” value (soybean; seed treatment 1 μg/seed) was 3.5. The “Root Vigor Average (Uninfested Soil)” value (soybean; seed treatment 5 μg/seed) was 3.9, the “Root Vigor Average (Uninfested Soil)” value (soybean; seed treatment 10 μg/seed) was 3.6 and the “Root Vigor Average (Uninfested Soil)” value (soybean; seed treatment 25 μg/seed) was 3.3. For the same compound, the “Root Vigor Average (Uninfested Soil)” value (soybean; seed treatment 50 μg/seed) was 3.8, the phytotoxicity to seeds (soybean; seed treatment at all concentrations (50, 25, 10, 5, 1 μg per seed), un-infested soil) was “not phytotoxic” and the “Root Rot Average” value (SDS; [2]) was 1.8. The “Root Vigor Average Infested Soil” value (SDS; [2]) was 2.3, the “Root Rot Average” value (SDS; seed treatment 1 μg/seed, infested soil) was 3 and the “Root Vigor Average Infested Soil” value (SDS; seed treatment 1 μg/seed) was 1.9. For the same compound, the “Root Rot Average” value (SDS; seed treatment 5 μg/seed, infested soil) was 3.6, the “Root Vigor Average Infested Soil” value (SDS; seed treatment 5 μg/seed) was 2.4 and the “Root Rot Average” value (SDS; seed treatment 10 μg/seed, infested soil) was 4. For the same compound, the “Root Vigor Average Infested Soil” value (SDS; seed treatment 10 μg/seed) was 1.8, the “Root Rot Average” value (SDS; seed treatment 25 μg/seed, infested soil) was 4.7 and the “Root Vigor Average Infested Soil” value (SDS; seed treatment 25 μg/seed) was 1.1. For the same compound, the “Root Rot Average” value (SDS; seed treatment 50 μg/seed, infested soil) was 4.6, the “Root Vigor Average Infested Soil” value (SDS; seed treatment 50 μg/seed) was 1.6 and the “Root Vigor Average Expt. 1” value ([1]; drench 1 ppm) was 1.7. The “Root Vigor Average Expt. 2” value ([1]; drench 1 ppm) was 2.5, the “Root Rot Average Expt. 2” value ([1]; drench 1 ppm) was 3.2 and the “Root Rot Average Expt. 1” value ([1]; drench 1 ppm) was 4.5. For the same compound, the “Root Vigor Average Expt. 1” value ([1]; drench 5 ppm) was 2, the “Root Vigor Average Expt. 2” value ([1]; drench 5 ppm) was 2.7 and the “Root Rot Average Expt. 2” value ([1]; drench 5 ppm) was 3.4. For the same compound, the “Root Rot Average Expt. 1” value ([1]; drench 5 ppm) was 3.9, the “Root Vigor Average Expt. 1” value ([1]; drench 10 ppm) was 2.1 and the “Root Vigor Average Expt. 2” value ([1]; drench 10 ppm) was 3. The “Root Rot Average Expt. 2” value ([1]; drench 10 ppm) was 3.1, the “Root Rot Average Expt. 1” value ([1]; drench 10 ppm) was 3.5 and the “Root Vigor Average Expt. 1” value ([1]; drench 25 ppm) was 2.8. For the same compound, the “Root Vigor Average Expt. 2” value ([1]; drench 25 ppm) was 3.1, the “Root Rot Average Expt. 2” value ([1]; drench 25 ppm) was 2.6 and the “Root Rot Average Expt. 1” value ([1]; drench 25 ppm) was 2.9. For the same compound, the “Root Vigor Average Expt. 1” value ([1]; drench 50 ppm) was 2.3, the “Root Vigor Average Expt. 2” value ([1]; drench 50 ppm) was 2.9 and the “Root Rot Average Expt. 2” value ([1]; drench 50 ppm) was 2.6. The “Root Rot Average Expt. 1” value ([1]; drench 50 ppm) was 3.1.
